{"source": "paper PMC7076174", "about": "(Frontiers in Oncology, 2020)", "key": {"[1]": {"test_system": "CD34+ CD38– AML stem cell population", "conditions": "tretinoin 0.5 μM, 6 days; in three samples", "from_the_text": "In order to study the separate effects of GSK3 inhibition or tretinoin on AML stem cells, we used previously obtained cryopreserved blood samples from the Eastern Cooperative Oncology Group (ECOG) tumor repository of newly diagnosed and untreated AML patients (independent of this trial) to conduct in vitro studies. […] Cryopreserved cells were thawed and cultured in RPMI 1640 media (Hyclone) containing 10% fetal bovine serum (Sigma-Aldrich, St. Louis, MO, USA) and 1% final concentration penicillin and streptomycin. Amphotericin B (0.5 μg/ml) and ciprofloxacin (10 μg/ml) were added to help eliminate fungal and mycoplasma contamination in the cell culture. Cells were treated with SB415285 (10 μM) obtained from Tocris (Bristol, UK), a laboratory-grade GSK3 inhibitor which competitively binds to the ATP binding site of GSK3 ([23]), and tretinoin (0.5 μM). […] After 6 days, immunophenotyping for the CD34+ CD38– AML stem cell population was performed by flow cytometry."}, "GSK3α": {"test_system": "GSK3α", "set-up": "method as in PMID 23305709", "conditions": "cited from earlier work"}, "GSKβ": {"test_system": "GSKβ", "set-up": "method as in PMID 23305709", "conditions": "cited from earlier work"}, "GSK3 [2]": {"test_system": "GSK3", "conditions": "six patients with evaluable samples; CD34+ and/or CD117+ cells", "quoted_text": "Blood samples were collected at baseline, days 1, 8, and 30 and at the end of the study period. Specimens were processed only if ≥5% leukemic cells were present in the blood as assessed using morphologic criteria. […] Bone marrow was collected at baseline and end of study. Immunophenotyping was performed by multi-parameter flow cytometry using fluorochrome-labeled antibodies to CD11b, CD14, and CD15 as markers for monocytic and/or granulocytic differentiation ([19]–[22]). The stained samples were run on a BD Biosciences LSRII (San Jose, CA, USA) flow cytometer. Cells were concurrently stained for CD34, CD117, and CD38 for identification of the leukemic blast and stem cell populations (CD34+ CD38–). […] Phosphorylated Serine-9 GSK3β antibody was obtained from Cell Signaling Technologies (Beverly, MA, USA)."}, "[3]": {"method": "Lithium carbonate (lithium) 300 mg was administered orally three times a day (or two times daily for patients age ≥65 years) starting on day - 3 prior to cycle 1 and on day 1 of all subsequent cycles consisting of 28 days (Figure 1). The “lead-in” period prior to cycle 1 was designed to allow for correlative studies to investigate the effects of lithium on leukemic cell GSK3 activity and to ensure achievement of adequate serum lithium concentrations prior to tretinoin exposure. The target serum lithium concentration was the laboratory-defined therapeutic range of 0.6–1.0 mmol/L based on toxicity in humans for treatment of mood disorders. Dose adjustments were made based on the serum lithium concentration (Supplementary Figure 1). Dosing of tretinoin followed a “3+3” study design with three patients sequentially enrolled at each dose level ([13]). Tretinoin was administered orally at a dose of 22.5 mg/m^2/day (dose level 1) or 45 mg/m^2/day (dose level 2) in two divided doses, from days 1 to 7 and from days 15 to 21 of a 28-day cycle."}, "GSK3 [4]": {"test_system": "GSK3", "conditions": "cited from earlier work"}}}
{"smiles": "CC1=C(/C=C/C(C)=C/C=C/C(C)=C/C(=O)O)C(C)(C)CCC1", "note": "[tretinoin]", "values": [{"measurement": "Reduction of the CD34+ CD38– population, tretinoin alone vs combination with SB415285", "setting": "[1]", "result": "comparable reduction of the CD34+ CD38– population"}]}
{"smiles": "O=C1NC(=O)C(c2cnc3ccccn23)=C1c1cn2c3c(cc(F)cc13)CN(C(=O)N1CCCCC1)CC2", "note": "[LY2090314]", "values": [{"measurement": "IC50", "setting": "GSK3α", "result": 1.5, "unit": "nM"}, {"measurement": "IC50", "setting": "GSKβ", "result": 0.9, "unit": "nM"}]}
{"smiles": "O=C([O-])[O-].[Li+].[Li+]", "note": "[lithium, Lithium carbonate]", "values": [{"measurement": "Median increase in pGSK3β, change in mean fluorescence intensity (MFI) from baseline", "setting": "GSK3 [2]", "result": "1,093 (range, 111–1,738)"}, {"measurement": "Target serum lithium concentration (0.6–1.0 mmol/L) achieved", "setting": "[3]; oral lithium carbonate 300 mg 2–3 times daily, dose adjusted", "result": "achieved at least once in all nine patients"}, {"measurement": "Serum lithium concentration at admission", "setting": "[3]; patient with delirium (DLT), third week of treatment, dose level 1", "result": 0.28, "unit": "mmol/L"}, {"measurement": "Lithium threshold concentration necessary in vivo to significantly inhibit GSK3", "setting": "GSK3 [4]", "result": "~ 0.8 mmol/L"}]}
